Results on 25 compounds are retold here after patent US10449186B2, “Phenylethynyl-substituted benzenes and heterocycles for the treatment of cancer” (UNIVERSITY OF KENTUCKY RESEARCH FOUNDATION, priority 2017, dated 2019).

The melting point is the temperature, or range, at which the solid turns liquid.

The test system of data set [1] is LS174T colon cancer cells. As to the kind of experiment: LS174T cell proliferation assay. It counts as cell-based. Conditions: for inhibition at 1 µM / inhibition at 0.1 µM / inhibition at 10 µM / IC50 / inhibition at 0.03 µM: Homo sapiens, LS174T; for IC50: read-out: IC50, LS174T cell proliferation assay. Also on record: effects on LS174T colon cancer cell proliferation (Table 3): unit not given here. The procedure:
Cell proliferation assay. LS174T cells were grown in RPMI medium (Mediatech) supplemented with 5% fetal bovine serum and 1% penicillin/streptomycin. For cell proliferation assays, 3×10^4 cells/well growing in 12-well plates were treated with DMSO or inhibitors. The cell numbers and viability were analyzed by Vi-Cell Cell Viability Analyzer after 4 days. The IC50 values were calculated with GraphPad Prim 5.

Another data set has as its system p21^Wif1/Cip1. As to the kind of experiment: Western blot, p21^Wif1/Cip1 expression in LS174T cells. It counts as cell-based. As to conditions: 300 nM. The procedure:
(§1) FIG. 2A is a western blot showing the effects of 4-((2,6-difluorophenyl)ethynyl)-N,N-dimethylaniline (2), 4-((2,6-difluorophenyl)ethynyl)-N,N-dimethylisoquinolin-1-amine (5nn), and 4-((2,6-difluorophenyl)ethynyl)-N-methylisoquinolin-1-amine (5oo) on the expression of […] and p21^Wif1/Cip1 in LS174T cells at 300 nM concentrations.
(§2) Western blotting. Western blotting was performed as described previously. The following antibodies were used: anti-c-myc (Epitomics, 1472-1), anti-p21^Wif1/Cip1 (Cell Signaling, 2947), anti-β-tubulin (DSHB, E7).
In general terms: In western blotting, separated proteins are transferred to a membrane and probed.

A further data set deals with cyclin D1. As to the kind of experiment: Western blot, cyclin D1 expression in LS174T cells. As to conditions: 300 nM. The data set is classed as cell-based. The procedure: as §1, §2
A short description of a further data set: Water solubility. Conditions: hydrochloride salts.
[2] abbreviates: Table 2, 100 nM, read-out: inhibition of cell proliferation (%) of colon cancer LS174T cells.
Setting [3] is: Table 2, 1 μM, read-out: inhibition of cell proliferation (%) of colon cancer LS174T cells.
Setting [4] is: Table 2, 10 μM, read-out: inhibition of cell proliferation (%) of colon cancer LS174T cells.
The mark [5] stands for this setting: read-out: inhibition of cell proliferation (%) of colon cancer LS174T cells.
The mark [6] stands for this setting: read-out: inhibition of LS174T colon cancer cell proliferation.

Each structure is given as a SMILES string. Like-named read-outs stand apart in the source and are kept apart here. Where only a bound is given, the exact number is not on record here.

In turn, `Cn1ncc2ccc(C#Cc3c(F)cccc3F)cc21` [Compound 5k, 6-((2,6-Difluorophenyl)ethynyl)-1-methyl-1H-indazole] registered a melting point of 117 to 119 °C. Moreover, in data set [1] (1 μM, read-out: inhibition of LS174T colon cancer cell proliferation), the inhibition at 1 µM was over 75%. In addition, in data set [1] (setting [2]), the inhibition at 0.1 µM worked out at 0%. Further, in data set [1] (setting [3]), the inhibition at 1 µM is 85.9 ± 5.4%. Further, in data set [1] (setting [4]), the inhibition at 10 µM is 98.1 ± 0.4%.

`Fc1cccc(F)c1C#Cc1cnc(Cl)c2ccccc12` [Compound 5kk, 1-Chloro-4-((2,6-difluorophenyl)ethynyl)isoquinoline]: the melting point lay in the range of 145 to 146 °C. In data set [1] (setting [5]), the inhibition at 0.1 µM worked out at 0.8 ± 36.1%, the inhibition at 1 µM was found to be 48.1 ± 18.1% and the inhibition at 10 µM came to 94 ± 0.5%.

For `Fc1ccc2ccnc(C#Cc3c(F)cccc3F)c2c1` [Compound 5ll, 1-((2,6-Difluorophenyl)ethynyl)-7-fluoroisoquinoline], the melting point is 177 to 178 °C. In data set [1] (setting [5]), the inhibition at 0.1 µM was 0%, the inhibition at 1 µM came out at 71.1 ± 3.5% and the inhibition at 10 µM came to 96.2 ± 0.1%.

Regarding `Fc1cccc(F)c1C#Cc1ccc2ccccc2n1` [Compound 5m, 2-((2,6-Difluorophenyl)ethynyl)quinoline], the melting point fell in the range of 127 to 129 °C. In data set [1] (setting [5]), the inhibition at 0.1 µM came out at 6.1 ± 27%, the inhibition at 1 µM is 67.3 ± 13.6% and the inhibition at 10 µM turned out to be 93.8 ± 1.7%.

In turn, `Nc1ncc(C#Cc2c(F)cccc2F)c2ccccc12` [Compound 5mm, 4-((2,6-Difluorophenyl)ethynyl)isoquinolin-1-amine] displayed a melting point of 200 to 201 °C. Further, in data set [1] (setting [5]), the inhibition at 0.1 µM was 35.5 ± 1.7%, the inhibition at 1 µM worked out at 86.2 ± 1.6% and the inhibition at 10 µM was determined as 93.1 ± 1.6%.

Turning to `Fc1cccc(F)c1C#Cc1cnc2ccccc2c1` [Compound 5n, 3-((2,6-Difluorophenyl)ethynyl)quinoline], the melting point lay within 115 to 117 °C. In addition, in data set [1] (setting [5]), the inhibition at 0.1 µM was found to be 0%, the inhibition at 1 µM is 41.7 ± 6.5% and the inhibition at 10 µM stood at 90.4 ± 1%.

Take `CN(C)c1ncc(C#Cc2c(F)cccc2F)c2ccccc12` [Compound 5nn, 4-((2,6-difluorophenyl)ethynyl)-N,N-dimethylisoquinolin-1-amine]: the melting point was 122 to 124 °C. Besides, in the data set with p21^Wif1/Cip1, the “p21^Wif1/Cip1 expression (western blot)” value is given as “induced p21^Wif1/Cip1”. For the same compound, in the data set on cyclin D1, the “cyclin D1 expression (western blot)” value is recorded as “inhibited cyclin D1 expression”. Further, in data set [1], the IC50 was determined as 11.8 ± 1.5 nM. Moreover, in data set [1] (setting [5]), the inhibition at 0.03 µM was determined as 86 ± 2%, the inhibition at 0.1 µM turned out to be 81.7 ± 2.1%, the inhibition at 1 µM stood at 99.5 ± 0.1% and the inhibition at 10 µM is 97.6 ± 1.5%.

Regarding `Fc1cccc(F)c1C#Cc1ccnc2ccccc12` [Compound 5o, 4-((2,6-Difluorophenyl)ethynyl)quinoline], the melting point was 101 to 102 °C. Further, in data set [1] (setting [5]), the inhibition at 1 µM was 15.4 ± 9.1% and the inhibition at 10 µM was 59 ± 7.5%.

Take `CNc1ncc(C#Cc2c(F)cccc2F)c2ccccc12` [Compound 5oo, 4-((2,6-Difluorophenyl)ethynyl)-N-methylisoquinolin-1-amine]: the melting point fell in the range of 118 to 120 °C. Also, the “p21^Wif1/Cip1 expression (western blot)” value in the data set on p21^Wif1/Cip1 is “induced p21^Wif1/Cip1”. Moreover, the “cyclin D1 expression (western blot)” value in the data set on cyclin D1 was “inhibited cyclin D1 expression”. The IC50 in data set [1] is 4.2 ± 0.2 nM. In data set [1] (setting [5]), the inhibition at 0.03 µM is 94.5 ± 1.5%, the inhibition at 0.1 µM was 99.5 ± 0.5%, the inhibition at 1 µM came to 99.8 ± 0.2% and the inhibition at 10 µM is 98.9 ± 1%.

`Fc1cccc(F)c1C#Cc1cc2ccccc2nc1Cl` [Compound 5p, 2-Chloro-3-((2,6-difluorophenyl)ethynyl)quinoline] returned a melting point of 137 to 138 °C. Besides, in data set [1] (setting [5]), the inhibition at 1 µM is 28.4 ± 10.5% and the inhibition at 10 µM amounted to 85.1 ± 6.2%.

For the compound `CN1CCN(c2ncc(C#Cc3c(F)cccc3F)c3ccccc23)CC1` [Compound 5pp, 4-((2,6-Difluorophenyl)ethynyl)-1-(4-methylpiperazin-1-yl)isoquinoline], in the data set “Water solubility”, the water solubility entry is “completely water-soluble”. In data set [1] (setting [5]), the inhibition at 1 µM was determined as 23.2 ± 9.4% and the inhibition at 10 µM amounted to 100%.

Compound `Fc1cccc(F)c1C#Cc1cnc2ccccc2c1Cl` [Compound 5q, 4-Chloro-3-((2,6-difluorophenyl)ethynyl)quinoline] had a melting point of 140 to 142 °C. In addition, in data set [1] (setting [2]), the inhibition at 0.1 µM came out at 0%. The inhibition at 1 µM in data set [1] (setting [3]) was 51.5 ± 20.4%. For the same compound, the inhibition at 10 µM in data set [1] (setting [4]) was found to be 80.4 ± 13.7%.

Compound `CN(C)c1ncc(C#Cc2c(F)cccc2F)c2ncccc12` [Compound 5qq, 8-((2,6-Difluorophenyl)ethynyl)-N,N-dimethyl-1,6-naphthyridin-5-amine] came in with a melting point of 149 to 150 °C. Also, the water solubility result in the data set “Water solubility” is on record as “completely water-soluble”. The inhibition at 1 µM in data set [1] (setting [6]) is over 75%. For the same compound, in data set [1] (setting [5]), the inhibition at 0.1 µM is 59.5 ± 3.5%, the inhibition at 1 µM stood at 87.9 ± 0.8% and the inhibition at 10 µM worked out at 85.2 ± 1%.

As to `Fc1cccc(F)c1C#Cc1ccc2cncnc2c1` [Compound 5rr, 7-((2,6-Difluorophenyl)ethynyl)quinazoline], the melting point was 166 to 168 °C. For the same compound, the inhibition at 1 µM in data set [1] (setting [3]) was found to be 33.8 ± 4.8%. In addition, the inhibition at 10 µM in data set [1] (setting [4]) worked out at 96.3 ± 0.8%.

`Fc1ccc2cc(C#Cc3c(F)cccc3F)cnc2c1` [Compound 5s, 3-((2,6-Difluorophenyl)ethynyl)-7-fluoroquinoline]: the melting point was in the range of 142 to 143 °C. Further, in data set [1] (setting [5]), the inhibition at 0.1 µM is 14.8 ± 5.5%, the inhibition at 1 µM turned out to be 69.4 ± 4.5% and the inhibition at 10 µM turned out to be 95.1 ± 1.6%.

In turn, `Fc1cccc(F)c1C#Cc1cnc2c(F)cccc2c1` [Compound 5t, 3-((2,6-Difluorophenyl)ethynyl)-8-fluoroquinoline] returned a melting point of 136 to 137 °C. Also, in data set [1] (setting [5]), the inhibition at 0.1 µM came out at 8.8 ± 5.1%, the inhibition at 1 µM came to 63.6 ± 8.4% and the inhibition at 10 µM came to 89.1 ± 8.2%.

`Fc1cccc(F)c1C#Cc1ccnc2cc(Cl)ccc12` [Compound 5u, 7-Chloro-4-((2,6-difluorophenyl)ethynyl)quinoline] returned a melting point of 130 to 132 °C. In data set [1] (setting [5]), the inhibition at 1 µM was 36 ± 0.4% and the inhibition at 10 µM came out at 74.3 ± 0.2%.

In the case of `Fc1cccc(F)c1C#Cc1cccc2ncccc12` [Compound 5v, 5-((2,6-Difluorophenyl)ethynyl)quinoline], the melting point lay within 98 to 100 °C. In addition, in data set [1] (setting [5]), the inhibition at 1 µM turned out to be 43.1 ± 11.2% and the inhibition at 10 µM was found to be 94.7 ± 2.9%.

Consider `Fc1cccc(F)c1C#Cc1ccc2ncccc2c1` [Compound 5w, 6-((2,6-Difluorophenyl)ethynyl)quinoline], for which the melting point fell in the range of 91 to 93 °C. Moreover, in data set [1] (setting [5]), the inhibition at 1 µM was 11 ± 30.4% and the inhibition at 10 µM turned out to be 80.1 ± 1%.

With `Fc1cccc(F)c1C#Cc1ccc2cccnc2c1` [Compound 5x, 7-((2,6-Difluorophenyl)ethynyl)quinoline], the melting point was 123 to 125 °C. Further, in data set [1] (setting [6]), the inhibition at 1 µM was over 75%. Moreover, in data set [1] (setting [5]), the inhibition at 0.1 µM worked out at 2.9 ± 14%, the inhibition at 1 µM came to 90.7 ± 0.6% and the inhibition at 10 µM is 99.4 ± 0.3%.

Compound `Fc1cccc(F)c1C#Cc1cccc2cccnc12` [Compound 5y, 8-((2,6-Difluorophenyl)ethynyl)quinoline] came in with a melting point of 108 to 110 °C. Besides, in data set [1] (setting [5]), the inhibition at 1 µM is 47.6 ± 3.5% and the inhibition at 10 µM was determined as 92.7 ± 2.9%.

On to `Fc1cccc(F)c1C#Cc1ccc2nc(Cl)ccc2c1` [Compound 5z, 2-Chloro-6-((2,6-difluorophenyl)ethynyl)quinoline], for which the melting point was 137 to 138 °C. Also, in data set [1] (setting [5]), the inhibition at 1 µM is 21.2 ± 11.4% and the inhibition at 10 µM stood at 63.3 ± 2.3%.

In turn, `Fc1cncc(F)c1C#Cc1ccccc1` [Compound 7a, 3,5-Difluoro-4-(phenylethynyl)pyridine] gave a melting point of 52 to 54 °C. In data set [1] (30 nM), the “effects on LS174T colon cancer cell proliferation (Table 3)” value (from here on “effects”) came out at 5.3. In data set [1] (100 nM), the “effects” value is 24.7. Further, the “effects” value in data set [1] (300 nM) is 12.2.

Turning to `Nc1ccc(C#Cc2c(F)cncc2F)cc1` [Compound 7b, 4-((3,5-Difluoropyridin-4-yl)ethynyl)aniline], the melting point lay in the range of 156 to 158 °C. For the same compound, the “effects” value in data set [1] (30 nM) amounted to 11.4. Besides, in data set [1] (100 nM), the “effects” value is 30.5. In addition, the “effects” value in data set [1] (300 nM) is given as 36.2.

Regarding `CNc1ccc(C#Cc2c(F)cncc2F)cc1` [Compound 7c, 4-((3,5-Difluoropyridin-4-yl)ethynyl)-N-methylaniline], the melting point fell in the range of 149 to 151 °C. For the same compound, the “effects” value in data set [1] (30 nM) came out at 20.3. Besides, the “effects” value in data set [1] (100 nM) is 49.5. For the same compound, the “effects” value in data set [1] (300 nM) turned out to be 62.6.
